Source: US8946218B2, “CCR2 receptor antagonists, method for producing the same, and use thereof as medicaments” (Boehringer Ingelheim International GmbH, priority 2010, dated 2015)

Target: T1, CCR2 (Homo sapiens, UniProt P41597)
T1 construct: Membranes were prepared from THP-1 cells; endogenous in cells; host or cells: THP-1 (human acute monocytic leukaemia cells), membrane preparation
Assay: Receptor membrane binding assay: [125I]MCP-1 binding to CCR2 on THP-1 cell membranes (SPA beads)
Conditions: THP-1 membranes, [125I]MCP-1, bound radioactivity after 8 h; read-out: hKi
Protocol: The above exemplary substances have been tested for binding to CCR2 using a binding assay as outlined herein below:
THP-1 cells (human acute monocytic leukaemia cells) were cultured under standardized conditions at 37° C. and 5% CO2 in a humidified incubator. THP-1 cells were cultivated in RPMI 1640 medium (Gibco 21875) containing 1% MEM-NEAA (Gibso 11140) 2 mM L-glutamine, 1.5 g/L sodium bicarbonate, 4.5 g/L glucose, 10 mM HEPES and 1.0 mM sodium pyruvate, 90%; 10% fetal calf serum (FCS Gibco 10500-064).
Membranes were prepared from THP-1 cells. THP-1 cells were centrifuged at 300×g at 4° C. for 10 min. The cell pellet was resuspended in Phosphate Buffer Saline (PBS, including 10 μM Pefabloc and a protease inhibitor mix ‘complete’, Boehringer Mannheim (1 tablet/50 ml)), to a concentration of […]. The membrane preparation was performed by disrupting the cells by nitrogen […] (at 50 bar, for 1 h) in a “Nitrogen Bombe” (Parr Instrument). Cell debris was removed by centrifugation (800×g at 4° C., 1 min). The supernatant was centrifuged at 80000×g, 4° C. for 30 min to sediment the cell membranes. Usually 50 mg of protein (Bradford assay) were yielded from 1×10E9 cells. The membranes were resuspended in 25 mM HEPES, 25 mM MgCl2, 1 mM CaCl2, 10% Glycerine for storage in aliquots at −80° C. in 25 mM HEPES, 25 mM MgCl2, 1 mM CaCl2, 10% Glycerine and stored at −80° C.
Receptor Membrane Binding Assay:
Perkin Elmer NEX 332 Jod 125 MCP-1, Stock: 2200 Ci/mmol solved in 2000 μl assay buffer, stored at −20° C. THP-1 membrane were adjusted with 25 mM HEPES, pH 7.2; 5 mM MgCl2; 0.5 mM CaCl2; 0.2% BSA assay buffer to a concentration of 2.5 μg/15 μl. Amersham Biosciences PVT-WGA Beads (RPNQ0001) were adjusted with assay buffer to a concentration of 0.24 mg/30 μl. For preparation of the membrane-bead-suspension membranes and beads were incubated for 30 min at RT under rotation (60 rpm) with a ratio of 1:2. Test compounds dissolved in 100% DMSO to a concentration of 10 mM and are further diluted with 100% DMSO to 1 mM. All additional compound dilutions were obtained with assay buffer, final 1% DMSO. Compounds, membrane-bead-suspension and [125I]MCP-1 (ca. 25000 cpm/10 μl) were incubated. Bound radioactivity was determined by scintillation counter after 8 h. Determination of affinity of test compounds (dissociation constant hKi) is calculated by iterative fitting of experimental data using the “easy sys” program, which is based on law of mass action (Schittkowski K. (1994), Numerische Mathematik, Vol. 68, 129-142).

T1 sequence (P41597 whole entry): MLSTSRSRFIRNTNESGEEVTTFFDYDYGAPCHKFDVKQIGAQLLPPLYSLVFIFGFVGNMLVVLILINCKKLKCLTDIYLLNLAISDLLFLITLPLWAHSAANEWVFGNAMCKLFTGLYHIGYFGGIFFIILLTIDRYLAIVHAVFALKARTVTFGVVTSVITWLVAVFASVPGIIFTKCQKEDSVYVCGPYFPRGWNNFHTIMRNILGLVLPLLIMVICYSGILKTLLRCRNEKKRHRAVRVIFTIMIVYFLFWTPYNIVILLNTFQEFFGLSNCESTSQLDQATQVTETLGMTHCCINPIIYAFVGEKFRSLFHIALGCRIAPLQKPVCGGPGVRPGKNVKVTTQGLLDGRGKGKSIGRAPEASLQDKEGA

Row | Structure (SMILES) | Ki
1 | COc1ccc2cc(Nc3ncnc(C(=O)N4CCC(N[C@H]5CCOC[C@H]5OC)CC4)c3C)ccc2c1 [Example 36] | 70 nM
2 | COc1ccc2ccc(Nc3ncnc(C(=O)N4CCC(N[C@H]5CCOC[C@H]5OC)CC4)c3C)cc2c1 [Example 37] | 15 nM
3 | COc1cc(Nc2ncnc(C(=O)N3CCC(N[C@H]4CCOC[C@H]4OC)CC3)c2C)cc2ccccc12 [Example 38] | 91 nM
4 | CO[C@H]1COCC[C@H]1NC1CCN(C(=O)c2ncnc(Nc3ccc4ccccc4c3)c2C)CC1 [Example 39] | 84 nM
5 | COc1ccc2ccc(Nc3ncnc(C(=O)N4CCC(N[C@@H]5CCOC[C@@H]5OC)CC4)c3C)cc2c1 [Example 40] | 84 nM

Second part, the molecule after the results:

Row | Ki | Structure (SMILES)
6 | 196 nM | COc1cc(Nc2ncnc(C(=O)N3CCC(N[C@@H]4CCOC[C@@H]4OC)CC3)c2C)cc2ccccc12 [Example 41]
7 | 20 nM | CO[C@H]1COCC[C@H]1NC1CCN(C(=O)c2ncnc(Nc3ccc4cc(Br)ccc4c3)c2C)CC1 [Example 42]
8 | 17 nM | CO[C@@H]1COCC[C@@H]1NC1CCN(C(=O)c2ncnc(Nc3ccc4cc(Br)ccc4c3)c2C)CC1 [Example 43]
